The test concerns the target Tie-2 (Homo sapiens, UniProt Q02763). The experiment in a line: Tie-2 tyrosine kinase activity assay (luciferase/luciferin ATP consumption with pEY substrate, or 33P-ATP incorporation). In kind it is biochemical. Conditions: human enzyme Tie-2. How it is done:
One measure of inhibition is Ki. […] The Ki for a compound is determined from the IC50 based on three assumptions. First, only one compound molecule binds to the enzyme and there is no cooperativity. […] Third, the enzymatic rate of the enzyme-inhibitor complex is zero. The rate data (i.e. compound concentration) are fitted to the equation:
[formula] where V is the observed rate, Vmax, is the rate of the free enzyme, I0 is the inhibitor concentration, E0 is the enzyme concentration, and Kd is the dissociation constant of the enzyme-inhibitor complex.
Tyrosine kinase activity is determined by 1) measurement of kinase-dependent ATP consumption by in the presence of a generic substrate such as […], tyrosine (pEY), by luciferase/luciferin-mediated chemiluminescence or; 2) incorporation of radioactive phosphate derived from ^33P-ATP into a generic substrate which has been adsorbed onto the well surface of polystyrene microtiter plates. Phosphorylated substrate products are quantified by scintillation spectrometry.
Inhibition is indicated as IC50 with following key: A=IC50 less than 50 nM, B=IC50 greater than 50 nM, but less than or equal to 1000 nM, C=IC50 greater than 1000 nM, but less than 10,000 nM, D=IC50 10,000 nM or greater, and “-”=no data available. The abbreviation for human enzyme, Tie-2, is defined as tyrosine kinase with immunoglobulin and EGF repeats.

What is called IC50 is the concentration that inhibits the measured activity by half. A high value points to weaker potency.

Tie-2, sequence (Q02763 23-1124): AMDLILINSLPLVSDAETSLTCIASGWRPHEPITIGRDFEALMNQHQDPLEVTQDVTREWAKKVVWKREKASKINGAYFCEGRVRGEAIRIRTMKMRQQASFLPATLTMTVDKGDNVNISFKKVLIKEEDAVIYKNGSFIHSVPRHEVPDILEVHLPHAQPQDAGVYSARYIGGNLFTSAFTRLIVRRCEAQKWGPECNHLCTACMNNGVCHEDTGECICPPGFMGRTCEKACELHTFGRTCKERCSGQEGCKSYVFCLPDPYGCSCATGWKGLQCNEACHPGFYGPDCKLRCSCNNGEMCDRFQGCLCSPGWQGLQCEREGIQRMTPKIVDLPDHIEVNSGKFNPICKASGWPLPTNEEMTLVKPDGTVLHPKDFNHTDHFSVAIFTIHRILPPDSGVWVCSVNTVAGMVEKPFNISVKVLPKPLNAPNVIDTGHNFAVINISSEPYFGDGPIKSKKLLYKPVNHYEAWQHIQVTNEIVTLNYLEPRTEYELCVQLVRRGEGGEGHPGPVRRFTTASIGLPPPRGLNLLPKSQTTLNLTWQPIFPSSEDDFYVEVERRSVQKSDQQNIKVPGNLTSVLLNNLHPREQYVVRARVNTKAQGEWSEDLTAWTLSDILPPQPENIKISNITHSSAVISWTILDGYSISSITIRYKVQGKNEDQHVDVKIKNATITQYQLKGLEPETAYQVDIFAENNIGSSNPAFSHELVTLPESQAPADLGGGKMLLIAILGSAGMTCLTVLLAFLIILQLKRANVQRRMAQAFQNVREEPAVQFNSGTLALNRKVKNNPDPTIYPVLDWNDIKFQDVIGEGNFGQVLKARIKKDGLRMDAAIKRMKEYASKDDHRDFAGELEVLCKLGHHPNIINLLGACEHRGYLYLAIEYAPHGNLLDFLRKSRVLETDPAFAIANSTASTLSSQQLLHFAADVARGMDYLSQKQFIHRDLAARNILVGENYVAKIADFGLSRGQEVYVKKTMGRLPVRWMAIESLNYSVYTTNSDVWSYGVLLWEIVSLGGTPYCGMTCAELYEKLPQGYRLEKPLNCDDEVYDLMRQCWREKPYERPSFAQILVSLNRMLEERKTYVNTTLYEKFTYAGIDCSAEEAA

`C[C@H]1CN(c2nsnc2OCc2ccncc2)CCN1C(=O)Nc1cccc(C(F)(F)F)c1` [Example 58, (2S)-2-methyl-4-{4-[(pyridin-4-ylmethyl)oxy]-1,2,5-thiadiazol-3-yl}-N-[3-(trifluoromethyl)phenyl]piperazine-1-carboxamide] had an IC50 of 50 to 1000 nM.
To `O=C(Cc1cc(C(F)(F)F)ccc1C(F)(F)F)NC1CCN(c2nsnc2OCc2ccncc2)C1` (centres unmarked) [Example 60, 2-[2,5-bis(trifluoromethyl)phenyl]-N-(1-{4-[(pyridin-4-ylmethyl)oxy]-1,2,5-thiadiazol-3-yl}pyrrolidin-3-yl)acetamide] belongs 50 to 1000 nM; to `CC1CN(c2nsnc2OCc2ccncc2)CCN1C(=O)Cc1cc(C(F)(F)F)ccc1C(F)(F)F` (centres unmarked) [Example 61, 1-{[2,5-bis(trifluoromethyl)phenyl]acetyl}-2-methyl-4-{4-[(pyridin-4-ylmethyl)oxy]-1,2,5-thiadiazol-3-yl}piperazine], 50 to 1000 nM.
`CC1CN(c2nccnc2OCc2ccncc2)CCN1C(=O)Nc1cc(C(F)(F)F)cc(C(F)(F)F)c1` (centres unmarked) [Example 62, N-[3,5-bis(trifluoromethyl)phenyl]-2-methyl-4-{3-[(pyridin-4-ylmethyl)oxy]pyrazin-2-yl}piperazine-1-carboxamide] showed an IC50 below 50 nM.
The result for `CC1CN(c2nccnc2OCc2ccncc2)CCN1C(=O)Nc1cccc(C(F)(F)F)c1` (centres unmarked) [Example 63, 2-methyl-4-{3-[(pyridin-4-ylmethyl)oxy]pyrazin-2-yl}-N-[3-(trifluoromethyl)phenyl]piperazine-1-carboxamide] reads 50 to 1000 nM; that for `CC1CN(c2nccnc2OCc2ccncc2)CC(C)N1C(=O)Nc1cc(C(F)(F)F)cc(C(F)(F)F)c1` (centres unmarked) [Example 64, N-[3,5-bis(trifluoromethyl)phenyl]-2,6-dimethyl-4-{3-[(pyridin-4-ylmethyl)oxy]pyrazin-2-yl}piperazine-1-carboxamide], 50 to 1000 nM.
Take `CC1CN(c2nccnc2OCc2ccncc2)CC(C)N1C(=O)Nc1cccc(C(F)(F)F)c1` (centres unmarked) [Example 65, 2,6-dimethyl-4-{3-[(pyridin-4-ylmethyl)oxy]pyrazin-2-yl}-N-[3-(trifluoromethyl)phenyl]piperazine-1-carboxamide]: the IC50 lay in the range of 50 to 1000 nM.
The result for `O=C(Nc1cccc(C(F)(F)F)c1)NC1CCN(c2nccnc2OCc2ccncc2)C1` (centres unmarked) [Example 66, N-(1-{3-[(pyridin-4-ylmethyl)oxy]pyrazin-2-yl}pyrrolidin-3-yl)-N′-[3-(trifluoromethyl)phenyl]urea] reads 50 to 1000 nM.
Molecule `O=C(Nc1cc(C(F)(F)F)cc(C(F)(F)F)c1)NC1CCN(c2nccnc2OCc2ccncc2)C1` (centres unmarked) [Example 67, N-[3,5-bis(trifluoromethyl)phenyl]-N′-(1-{3-[(pyridin-4-ylmethyl)oxy]pyrazin-2-yl}pyrrolidin-3-yl)urea] registered an IC50 of 50 to 1000 nM.
`CC1CN(c2nsnc2OCc2ccncc2)CC(C)N1C(=O)Nc1cc(C(F)(F)F)cc(C(F)(F)F)c1` (centres unmarked) [Example 68, N-[3,5-bis(trifluoromethyl)phenyl]-2,6-dimethyl-4-{4-[(pyridin-4-ylmethyl)oxy]-1,2,5-thiadiazol-3-yl}piperazine-1-carboxamide] registered a concentration for half-maximal inhibition (IC50) of 50 to 1000 nM.
To `CC1CN(c2nsnc2OCc2ccncc2)CC(C)N1C(=O)Nc1cccc(C(F)(F)F)c1` (centres unmarked) [Example 69, 2,6-dimethyl-4-{4-[(pyridin-4-ylmethyl)oxy]-1,2,5-thiadiazol-3-yl}-N-[3-(trifluoromethyl)phenyl]piperazine-1-carboxamide] belongs 50 to 1000 nM.
`CC1CN(C(=O)Nc2cc(C(F)(F)F)cc(C(F)(F)F)c2)CCN1c1nccnc1OCc1ccncc1` (centres unmarked) [Example 70, N-[3,5-bis(trifluoromethyl)phenyl]-3-methyl-4-{3-[(pyridin-4-ylmethyl)oxy]pyrazin-2-yl}piperazine-1-carboxamide]: the IC50 was below 50 nM.
The result for `CC1CN(C(=O)Nc2cccc(C(F)(F)F)c2)CCN1c1nccnc1OCc1ccncc1` (centres unmarked) [Example 71, 3-methyl-4-{3-[(pyridin-4-ylmethyl)oxy]pyrazin-2-yl}-N-[3-(trifluoromethyl)phenyl]piperazine-1-carboxamide] reads 50 to 1000 nM; that for `O=C(Nc1cc(C(F)(F)F)cc(C(F)(F)F)c1)N1CCN(c2ccccc2OCc2ccncc2)CC1` [Example 72, N-[3,5-bis(trifluoromethyl)phenyl]-4-{2-[(pyridin-4-ylmethyl)oxy]phenyl}piperazine-1-carboxamide], below 50 nM; that for `O=C(Nc1cccc(C(F)(F)F)c1)N1CCN(c2ccccc2OCc2ccncc2)CC1` [Example 73, 4-{2-[(pyridin-4-ylmethyl)oxy]phenyl}-N-[3-(trifluoromethyl)phenyl]piperazine-1-carboxamide], 50 to 1000 nM.
To `CC1CN(c2nc3ccccc3nc2OCc2ccncc2)CCN1C(=O)Nc1cc(C(F)(F)F)cc(C(F)(F)F)c1` (centres unmarked) [Example 74, N-[3,5-bis(trifluoromethyl)phenyl]-2-methyl-4-{3-[(pyridin-4-ylmethyl)oxy]quinoxalin-2-yl}piperazine-1-carboxamide] belongs 50 to 1000 nM; to `O=C(Nc1cc(C(F)(F)F)cc(C(F)(F)F)c1)N1CCCN(c2nccnc2OCc2ccncc2)CC1` [Example 75, N-[3,5-bis(trifluoromethyl)phenyl]-4-{3-[(pyridin-4-ylmethyl)oxy]pyrazin-2-yl}-1,4-diazepane-1-carboxamide], 50 to 1000 nM; to `CC1CN(c2nc3ccccc3nc2OCc2ccncc2)CCN1C(=O)Nc1cccc(C(F)(F)F)c1` (centres unmarked) [Example 76, 2-methyl-4-{3-[(pyridin-4-ylmethyl)oxy]quinoxalin-2-yl}-N-[3-(trifluoromethyl)phenyl]piperazine-1-carboxamide], 50 to 1000 nM.
The result for `O=C(Nc1cccc(C(F)(F)F)c1)N1CCCN(c2nccnc2OCc2ccncc2)CC1` [Example 77, 4-{3-[(pyridin-4-ylmethyl)oxy]pyrazin-2-yl}-N-[3-(trifluoromethyl)phenyl]-1,4-diazepane-1-carboxamide] reads 50 to 1000 nM; that for `CC1CN(c2nccnc2OCc2ccncc2)C(C)CN1C(=O)Nc1cc(C(F)(F)F)cc(C(F)(F)F)c1` (centres unmarked) [Example 78, N-[3,5-bis(trifluoromethyl)phenyl]-2,5-dimethyl-4-{3-[(pyridin-4-ylmethyl)oxy]pyrazin-2-yl}piperazine-1-carboxamide], below 50 nM.
Consider `CC1CN(c2nccnc2OCc2ccncc2)C(C)CN1C(=O)Nc1cccc(C(F)(F)F)c1` (centres unmarked) [Example 79, 2,5-dimethyl-4-{3-[(pyridin-4-ylmethyl)oxy]pyrazin-2-yl}-N-[3-(trifluoromethyl)phenyl]piperazine-1-carboxamide], for which the IC50 lay within 50 to 1000 nM.
As for `C[C@H]1CN(c2nccnc2OCc2ccncc2)CCN1C(=O)Nc1cc(C(F)(F)F)cc(C(F)(F)F)c1` [Example 80, (2S)-N-[3,5-bis(trifluoromethyl)phenyl]-2-methyl-4-{3-[(pyridin-4-ylmethyl)oxy]pyrazin-2-yl}piperazine-1-carboxamide], the IC50 was below 50 nM.
The result for `C[C@H]1CN(c2nccnc2OCc2ccncc2)CCN1C(=O)Nc1cccc(C(F)(F)F)c1` [Example 81, (2S)-2-methyl-4-{3-[(pyridin-4-ylmethyl)oxy]pyrazin-2-yl}-N-[3-(trifluoromethyl)phenyl]piperazine-1-carboxamide] reads below 50 nM; that for `O=C(Nc1cc(C(F)(F)F)cc(C(F)(F)F)c1)N1CCN(c2nsnc2OCc2ccnc(F)c2)CC1` [Example 82, N-[3,5-bis(trifluoromethyl)phenyl]-4-(4-{[(2-fluoropyridin-4-yl)methyl]oxy}-1,2,5-thiadiazol-3-yl)piperazine-1-carboxamide], 1000 to 10000 nM; that for `O=C(Nc1cc(C(F)(F)F)cc(C(F)(F)F)c1)N1CCN(c2nsnc2OCc2ccnc(Cl)c2)CC1` [Example 83, N-[3,5-bis(trifluoromethyl)phenyl]-4-(4-{[(2-chloropyridin-4-yl)methyl]oxy}-1,2,5-thiadiazol-3-yl)piperazine-1-carboxamide], 1000 to 10000 nM.
The result for `O=C(Nc1cc(C(F)(F)F)cc(C(F)(F)F)c1)N1CCN(c2nccnc2OCc2ccnc(Cl)c2)CC1` [Example 84, N-[3,5-bis(trifluoromethyl)phenyl]-4-(3-{[(2-chloropyridin-4-yl)methyl]oxy}pyrazin-2-yl)piperazine-1-carboxamide] reads 50 to 1000 nM; that for `O=C(Nc1cc(C(F)(F)F)cc(C(F)(F)F)c1)N1CCN(c2nsnc2OCc2ccnc(Br)c2)CC1` [Example 87, N-[3,5-bis(trifluoromethyl)phenyl]-4-(4-{[(2-bromopyridin-4-yl)methyl]oxy}-1,2,5-thiadiazol-3-yl)piperazine-1-carboxamide], 1000 to 10000 nM.
`O=C(Nc1cc(C(F)(F)F)cc(C(F)(F)F)c1)N1CCN(c2nccnc2OCc2ccnc(F)c2)CC1` [Example 89, N-[3,5-bis(trifluoromethyl)phenyl]-4-(3-{[(2-fluoropyridin-4-yl)methyl]oxy}pyrazin-2-yl)piperazine-1-carboxamide] registered an IC50 of 50 to 1000 nM.
To `N#Cc1nc(OCc2ccncc2)c(N2CCN(C(=O)Nc3cc(C(F)(F)F)cc(C(F)(F)F)c3)CC2)nc1C#N` [Example 90, N-[3,5-bis(trifluoromethyl)phenyl]-4-{5,6-dicyano-3-[(pyridin-4-ylmethyl)oxy]pyrazin-2-yl}piperazine-1-carboxamide] belongs 50 to 1000 nM.

Source of the values: patent US8013156B2 (Exelixis, Inc., priority 2003, dated 2011).
